Experimental data taken from PMC11284787, “Ligand-Directed Labeling of the Adenosine A1 Receptor in Living Cells” (Journal of Medicinal Chemistry, 2024).

Assays:
SNAP-A1AR = test system: T1, SNAP-A1AR; test: Confocal A1AR internalisation and Rab5 immunolabelling; type: cell-based, human; details: 10 μM agonist 2 h; cells prelabeled with 30 nM 11
T1 construct: expressed in transfected cells; host or cells: HEK293T, transient transfection (FuGENE HD)
Text: A natural concern would be the potential for the covalently transferred fluorophore to prevent access of ligands to the orthosteric binding site of the labeled receptor. To address this question, we employed probe 11 to visualize the internalization pathway of the hA1AR by confocal microscopy. […] Cells were immunolabeled with the Anti-Rab5 monoclonal antibody and visualized by treatment with AF488-conjugated secondary antibody (middle frames, green channel). Right-hand frames show merged images of both magenta and green channels. […] The confocal images are representative of images acquired from three independent experiments. […] 37 °C 5% CO2. […] […] at 37 °C, 5% CO2. […] Cells were […] […] Cells were washed 3x 5 min with PBS.

NL-hA1AR = target: T2, NL-hA1AR (Homo sapiens, UniProt P30542); test: NanoBRET dissociation kinetics, NL-hA1AR HEK293T cells; type: binding; details: NL-hA1AR HEK293T cells, CA200645 preincubated 2 h
T2 construct: expressed in transfected cells
T2 sequence (P30542 1-326): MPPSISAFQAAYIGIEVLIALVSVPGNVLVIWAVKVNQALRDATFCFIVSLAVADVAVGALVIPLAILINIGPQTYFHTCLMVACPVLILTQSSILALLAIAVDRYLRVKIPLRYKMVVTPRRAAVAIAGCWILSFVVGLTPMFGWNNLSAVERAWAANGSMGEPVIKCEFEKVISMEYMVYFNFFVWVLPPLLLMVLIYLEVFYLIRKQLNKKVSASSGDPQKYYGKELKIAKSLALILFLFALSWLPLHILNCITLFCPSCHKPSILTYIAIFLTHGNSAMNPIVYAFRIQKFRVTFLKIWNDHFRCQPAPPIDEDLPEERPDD
Procedure: Figure 3 Molecular pharmacology and biochemical characterization of 11 and 12. NanoBRET ligand-binding data were measured in HEK293 cells stably expressing the human NL-A1AR (A–C) or rat NL-A1AR (D–F). […] Data were normalized to maximal BRET signals in the absence of unlabeled competing ligands (total binding, TB). (C, F) NanoBRET dissociation kinetics experiments with 11 (SulfoCy5) performed in human and rat NL-A1AR HEK293T cells, respectively. Cells were treated with 250 nM 11 (SulfoCy5, lilac open circles) for 5 h and CA200645 (black open triangles) for 2 h. […] TS-SNAP-A1AR was purified and separated on an SDS-PAGEgel gel, and direct Cy5 fluorescence was visualized using in-gel fluorescence. […]
The small reduction in the BRET signal observed toward the end of the reads could be mostly likely ascribed to substrate (furimazine) consumption. […] To confirm covalent labeling of A1AR by 11 and 12, HEK293G cells stably expressing a Twin-Strep-SNAP-A1AR(TS-SNAP-A1R) construct were treated with 11 or 12 prior to purification, separation by sodium dodecyl sulfate-polyacrylamide gel electrophoresis (SDS-PAGE) and visualization of labeled samples by in-gel fluorescence (Figure 3G). […]
37 °C for kinetic binding experiments. Emissions were read at 420 nm (80 nm bandpass; […]

Row | Compound | localization of SulfoCy5-labeled SNAP-A1AR at the plasma membrane after agonist (SNAP-A1AR) | time for BRET signal to return to baseline after addition of 10 μM DPCPX (NL-hA1AR) [min]
1 | OC[C@H]1O[C@@H](n2cnc3c(NC4CCCC4)nc(Cl)nc32)[C@H](O)[C@@H]1O [CCPA, 2-chloro-N^6-cyclopentyladenosine] | markedly reduced | 
2 | CA200645 [reference compound] |  | ≤ 4.7
